Measurements published in PubChem BioAssay (NCI).
Several values for one entry are separate records, joined by “and”; a condition that tells them apart may be missing. Equal values may be shown once.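 Exposure lasted 48 hours, with cells grown in 96-well plates and compounds tested at five concentrations. GI50: concentration for 50% inhibition of growth. TGI: concentration producing complete growth inhibition.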

How the values were obtained:
Experiment in all cases: inhibition of tumour cell growth, NCI panel, 48 h
UACC-62 melanoma = system: UACC-62 melanoma
SK-MEL-5 melanoma = system: SK-MEL-5 melanoma
SF-539 CNS = system: SF-539 CNS
OVCAR-5 ovarian = system: OVCAR-5 ovarian
RXF 393 renal = system: RXF 393 renal
NCI/ADR-RES ovarian = system: NCI/ADR-RES ovarian
COLO 205 colon = system: COLO 205 colon
CCRF-CEM leukemia = system: CCRF-CEM leukemia
HCC-2998 colon = system: HCC-2998 colon
EKVX NSCLC = system: EKVX NSCLC

For `C/C(=N\NC(=S)N1CCN(c2ccccn2)CC1)c1ncccn1`, the GI50 (UACC-62 melanoma) was 0.057 µM, the TGI (UACC-62 melanoma) was 0.58 µM and 4.19 µM and the GI50 (SK-MEL-5 melanoma) was 0.269 µM. For the same molecule, the TGI (SK-MEL-5 melanoma) was 3.2 µM and 14.9 µM, the GI50 (SF-539 CNS) was 0.655 µM and the TGI (SF-539 CNS) was 6.38 µM and 15.9 µM. For the same molecule, the TGI (OVCAR-5 ovarian) was 4.77 µM and 21.5 µM, the GI50 (RXF 393 renal) was 1.05 µM and the TGI (RXF 393 renal) was 4.51 µM and 15.5 µM. The TGI (NCI/ADR-RES ovarian) was 3.95 µM and 0.403 µM, the GI50 (COLO 205 colon) was under 0.0245 µM and the TGI (CCRF-CEM leukemia) was 2.06 µM and 11.4 µM. For the same molecule, the GI50 (HCC-2998 colon) was 0.177 µM, the TGI (HCC-2998 colon) was 5.21 µM and 13.5 µM and the GI50 (EKVX NSCLC) was 0.0494 µM. For the same molecule, the TGI (EKVX NSCLC) was 5.2 µM and 12.8 µM.

In the case of `COc1c(OC(C)C)cc2cc(O)c(C(=O)NC3Cc4ccc(c(Cl)n4)O[C@@H]4C=C5C#C/C(=C\C#CC6OC56C4OC4CC(C)(O)C(O)C(C)O4)C(OC4CC(O)C(N(C)C)C(C)O4)COC3=O)cc2c1OC` (stereo not given in full), the GI50 (UACC-62 melanoma) is reported as 4.33 µM and 0.511 µg/mL, the TGI (UACC-62 melanoma) is reported as 21 µM and 7.44 µg/mL and the GI50 (SK-MEL-5 melanoma) is reported as > 36.3 µM and 0.546 µg/mL. For the same molecule, the TGI (SK-MEL-5 melanoma) was > 36.3 µM and 10.1 µg/mL, the GI50 (SF-539 CNS) was 14.4 µM and 0.372 µg/mL and the TGI (SF-539 CNS) was > 36.3 µM and 5.29 µg/mL. The GI50 (OVCAR-5 ovarian) was > 36.3 µM and 4.02 µg/mL, the TGI (OVCAR-5 ovarian) was > 36.3 µM and 27.5 µg/mL and the GI50 (RXF 393 renal) was 0.568 µg/mL. The TGI (RXF 393 renal) was > 36.3 µM and 1.92 µg/mL, the TGI (NCI/ADR-RES ovarian) was over 36.3 µM and the GI50 (COLO 205 colon) was > 36.3 µM and 0.345 µg/mL. The TGI (COLO 205 colon) was > 36.3 µM and 13.6 µg/mL, the GI50 (CCRF-CEM leukemia) was 4.34 µM and 0.0317 µg/mL and the TGI (CCRF-CEM leukemia) was > 36.3 µM and 5.33 µg/mL. For the same molecule, the GI50 (HCC-2998 colon) was 21 µg/mL, the TGI (HCC-2998 colon) was > 36.3 µM and 37.5 µg/mL and the GI50 (EKVX NSCLC) was > 36.3 µM and 37.5 µg/mL. The TGI (EKVX NSCLC) was > 36.3 µM and 37.5 µg/mL.

`CC1CCN(CCOc2ccc(CNc3ccc4nc(CCC5CCCCC5)[nH]c4c3)cc2)CC1` was tested, and the GI50 (UACC-62 melanoma) was 1.9 µM, the TGI (UACC-62 melanoma) was 3.36 µM and the GI50 (SK-MEL-5 melanoma) was 1.7 µM. The TGI (SK-MEL-5 melanoma) was 3.08 µM, the GI50 (SF-539 CNS) was 1.56 µM and the TGI (SF-539 CNS) was 3.01 µM. For the same molecule, the GI50 (OVCAR-5 ovarian) was 1.76 µM, the TGI (OVCAR-5 ovarian) was 3.44 µM and the GI50 (RXF 393 renal) was 1.33 µM. It also gave a TGI (RXF 393 renal) of 2.84 µM, a GI50 (NCI/ADR-RES ovarian) of 1.81 µM and a TGI (NCI/ADR-RES ovarian) of 4.12 µM. It also gave a GI50 (COLO 205 colon) of 1.57 µM, a TGI (COLO 205 colon) of 3.08 µM and a GI50 (CCRF-CEM leukemia) of 1.72 µM. It also gave a TGI (CCRF-CEM leukemia) of 6.41 µM, a GI50 (HCC-2998 colon) of 1.42 µM and a TGI (HCC-2998 colon) of 2.85 µM. For the same molecule, the GI50 (EKVX NSCLC) was 1.62 µM and the TGI (EKVX NSCLC) was 3.18 µM.
